Legend:
[1] = test system: GSTm8; experiment: In vitro PTPase assay, GSTm8; assay type: biochemical; conditions: 3-4 μg/ml or 10-100 μg/ml
[2] = biological target: T1, PRL-1 (Homo sapiens, UniProt Q93096); experiment: In vitro PTPase assay, recombinant PRL-1; assay type: biochemical; conditions: 0.1-100 μg/ml
T1 construct: cDNAs of human PRL-1, PRL-2 and PRL-3 coding region were derived by RT-PCR from H9 cells; made in house; host or cells: DH5a bacteria (E. coli)
Description: (§1) Sodium stibogluconate, suramin, sodium orth ovanadate and GST fusion protein of SHP-1 have been described previously (Pathak et al., J. Imumol. 167, 3391 (2001)). Meglumine antimonate was obtained from Aventis. cDNAs of human PRL-1, PRL-2 and PRL-3 coding region were derived by RT-PCR from H9 cells (Safai, et al., Lancet 1, 1438 (1984)) and inserted in frame into the pGEX vector. cDNA of PRL-1R86 was generated by recombinant DNA technique using PRL-1 cDNA as template following established procedures (Jiao, et al., Mol. Cell. Biol. 16, 6985 (1996)). […]
(§2) In vitro PTPase assays were used to determine the effects of compounds on recombinant PTPases, following established procedures using a synthetic phosphotyrosine peptide or DiFMUP as the substrate (Pathak et al., J. Imumol. 167, 3391 (2001)). […] PTPase activity of individual reactions was measured by adding 100 μL of malachite green solution (UBI) and then quantifying the amounts of free phosphate cleaved by the PTPase from the peptide substrate by spectrometry (OD660 nm). […] Relative PTPase activities were calculated based on the formula: (PTPase activity in the presence of an inhibitory compound/PTPase activity in the absence of the compound)×100%. […]

[3] = biological target: T2, PRL-3 (Homo sapiens, UniProt O75365); experiment: In vitro PTPase assay, recombinant PRL-3; assay type: biochemical; conditions: 0.1-100 μg/ml
T2 construct: cDNAs of human PRL-1, PRL-2 and PRL-3 coding region were derived by RT-PCR from H9 cells; made in house; host or cells: DH5a bacteria (E. coli)
Description: Sodium stibogluconate, suramin, sodium orth ovanadate and GST fusion protein of SHP-1 have been described previously (Pathak et al., J. Imumol. 167, 3391 (2001)). Meglumine antimonate was obtained from Aventis. cDNAs of human PRL-1, PRL-2 and PRL-3 coding region were derived by RT-PCR from H9 cells (Safai, et al., Lancet 1, 1438 (1984)) and inserted in frame into the pGEX vector. cDNA of PRL-1R86 was generated by recombinant DNA technique using PRL-1 cDNA as template following established procedures (Jiao, et al., Mol. Cell. Biol. 16, 6985 (1996)). GST fusion proteins of the PRL phosphatases were prepared from DH5a bacteria transformed with the pGEX fusion protein constructs as described previously (Yi, et al., Mol. Cell. Biol. 12, 836 (1992)). cDNAs encoding the PRLs tagged at the N-termini with the Flag epitope (Castrucci, et al., J. Virol. 66, 4647 (1992)) were generated via recombinant DNA technique, sequenced to confirm their identities and cloned into the pBabepuro vector (Yang, et al., Blood 91, 3746 (1998)). Anti-Flag monoclonal antibody (M2, Sigma) was purchased from a commercial source. A synthetic phosphotyrosine peptide (Arg-Arg-Leu-Ile-Glu-Asp-Ala-Gle-Tyr-Ala-Ala-Arg-Gly (SEQ ID NO: 3), wherein the tyrosine is phosphorylated; UBI) and DiFMUP (6, 8-difluoro-4-methylumbelliferyl phosphate, Molecular Probes) were purchased as substrates for PTPase assays.
In vitro PTPase assays were used to determine the effects of compounds on recombinant PTPases, following established procedures using a synthetic phosphotyrosine peptide or DiFMUP as the substrate (Pathak et al., J. Imumol. 167, 3391 (2001)). Briefly, individual PTPases (0.1 μg/reaction) in 50 μL of PTPase buffer (50 mM Tris, pH 7.4) were incubated at 22° C. for 10 minutes or as indicated in the absence or presence of inhibitory compounds. Substrates (0.2 mM phosphotyrosine peptide) were then added and allowed to react at 22° C. for 18 hrs. PTPase activity of individual reactions was measured by adding 100 μL of malachite green solution (UBI) and then quantifying the amounts of free phosphate cleaved by the PTPase from the peptide substrate by spectrometry (OD660 nm). PTPase assays using DiFMUP as a substrate were conducted following a previously described procedure (Matter, et al., Biochem. Biophys. Res. Comm. 283, 1061 (2001)). Relative PTPase activities were calculated based on the formula: (PTPase activity in the presence of an inhibitory compound/PTPase activity in the absence of the compound)×100%. To assess the reversibility of PTPase inhibition, GST fusion proteins of the PTPases bound on glutathione beads (Pharmacia) were pre-incubated with cold Tris buffer (50 mM Tris, pH 7.0) or Tris buffer containing the inhibitor at 4° C. for 30 minutes. The beads were then washed three times in cold Tris buffer or not washed prior to subjecting to in vitro PTPase assays.

[4] = biological target: T3, PRL-2 (Homo sapiens, UniProt Q12974); experiment: In vitro PTPase assay, recombinant PRL-2; assay type: biochemical
T3 construct: cDNAs of human PRL-1, PRL-2 and PRL-3 coding region were derived by RT-PCR from H9 cells; made in house; host or cells: DH5a bacteria (E. coli)
Description: as §1, §2

[5] = biological target: T4, SHP-1 (Mus musculus, UniProt P29351); experiment: In vitro PTPase assay, GST/SHP-1 fusion protein; assay type: biochemical; conditions: 3-4 μg/ml or 10-100 μg/ml
T4 construct: made in house
Protocol: In vitro PTPase activities were measured using the commercial protein tyrosine phosphatase assay kit (Upstate Biotechnology, Inc. (“UBI”)) following established procedure known to one of skill in the art. […] 100 μl of Malachite Green solution was added and incubated for 5 minutes, and the absorbance at 660 nm was measured after 5 minutes.
The beads were then either subjected to in vitro PTPase assays or washed 3 times in Tris buffer then subjected to in vitro PTPase assays.
Briefly, individual PTPases (0.1 μg/reaction) in 50 μL of PTPase buffer (50 mM Tris, pH 7.4) were incubated at 22° C. for 10 minutes or as indicated in the absence or presence of inhibitory compounds. […] […] […] Relative PTPase activities were calculated based on the formula: (PTPase activity in the presence of an inhibitory compound/PTPase activity in the absence of the compound)×100%. To assess the reversibility of PTPase inhibition, GST fusion proteins of the PTPases bound on glutathione beads (Pharmacia) were pre-incubated with cold Tris buffer (50 mM Tris, pH 7.0) or Tris buffer containing the inhibitor at 4° C. for 30 minutes. The beads were then washed three times in cold Tris buffer or not washed prior to subjecting to in vitro PTPase assays.

[6] = test system: WM9 cells; experiment: Cell proliferation assay (MTT), WM9 melanoma cells; assay type: cell-based, human
Protocol: For cell proliferation assays, cells were grown in 10% FCS culture medium containing various amounts of IFNs and/or sodium stibogluconate in 96 well plates and cultured at 37° C. for 3 or 6 days as indicated. The numbers of viable cells in proliferation assays were determined by MTT assays as described in Phatak et al., J. Immunol. 167, 3391 (2001).
Dose response curves were generated for each drug alone, and also the combinations. Median effect plots were generated for IFNs alone, sodium stibogluconate alone, and the combination. The combination index (CI) was determined and plotted vs. fraction affected (FA). Data were analyzed in both modes, mutually exclusive and mutually nonexclusive. The interaction between two mutually nonexclusive drugs is described by the Equation CI=D1/D×1+D2/D×2+D1D2/D×1D×2, where D×1 and D×2 are the doses of drug 1 and drug 2 that are required to inhibit growth×%. […] When CI<1, drugs are synergistic, when CI=1, drugs are additive, and when CI>1, drugs are antagonistic.

[7] = biological target: T5, MKP1 (Homo sapiens, UniProt P28562); experiment: In vitro PTPase assay, GST/MKP1 fusion protein; assay type: biochemical
T5 construct: a pGEX construct containing the coding region of MKP1 cDNA derived by RT-PCR; made in house; host or cells: DH5a bacteria (E. coli)
T5 sequence (P28562 1-367): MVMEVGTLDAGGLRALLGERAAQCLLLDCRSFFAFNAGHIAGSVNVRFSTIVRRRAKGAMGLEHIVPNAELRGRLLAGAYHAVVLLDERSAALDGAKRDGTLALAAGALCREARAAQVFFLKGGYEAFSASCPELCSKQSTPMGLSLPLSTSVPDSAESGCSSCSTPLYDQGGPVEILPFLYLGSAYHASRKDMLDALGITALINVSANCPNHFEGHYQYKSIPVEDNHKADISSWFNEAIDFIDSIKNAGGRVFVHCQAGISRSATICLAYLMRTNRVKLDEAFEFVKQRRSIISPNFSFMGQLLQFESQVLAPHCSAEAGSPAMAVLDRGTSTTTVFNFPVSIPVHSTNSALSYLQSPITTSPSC

[8] = test system: NB4 cells; experiment: NB4 cell differentiation (NBT reduction, CD11b); assay type: cell-based, human
Protocol: (§3) Differentiation of AML cell lines was assessed by their ability to produce superoxide as measured by reduction of NBT to formazan and by analysis of expression of CD11b surface marker by flow cytometry. For NBT reduction, each cell suspension was mixed with an equal volume of solution containing 1 mg/ml of NBT (Sigma) and 2.5 μg/ml of TPA for 30 minutes at 37° C. After incubation, cells containing the purple formazan deposits and cells devoid of NBT-reducing activity (white cells) in each sample were determined by counting 200 cells under microscope. Data is expressed as a percentage based on the following ratio: purple cells/purple+white cells. For analysis of cell surface antigens, cells were exposed to phycoerythrin (PE)-conjugated murine anti-human CD11b (DAKO Corp., Carpinteria, Calif.). Analysis of fluorescence was performed on a FACScan flow cytometer (Beckton Dickinson, Mountain View, Calif.).

[9] = test system: HL-60 cells; experiment: HL-60 cell differentiation (NBT reduction); assay type: cell-based, human; conditions: GM-CSF 25 ng/ml alone, day 6
Protocol: as §3

[10] = test system: U937 cells; experiment: U937 cell differentiation (NBT reduction); assay type: cell-based, human; conditions: GM-CSF 25 ng/ml alone, day 6
Protocol: as §3

T3 sequence (Q12974 whole entry): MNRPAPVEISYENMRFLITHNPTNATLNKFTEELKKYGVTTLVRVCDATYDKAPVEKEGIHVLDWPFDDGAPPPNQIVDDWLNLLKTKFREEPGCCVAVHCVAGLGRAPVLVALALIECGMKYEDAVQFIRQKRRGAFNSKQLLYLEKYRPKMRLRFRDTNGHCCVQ
T1 sequence (Q93096 whole entry): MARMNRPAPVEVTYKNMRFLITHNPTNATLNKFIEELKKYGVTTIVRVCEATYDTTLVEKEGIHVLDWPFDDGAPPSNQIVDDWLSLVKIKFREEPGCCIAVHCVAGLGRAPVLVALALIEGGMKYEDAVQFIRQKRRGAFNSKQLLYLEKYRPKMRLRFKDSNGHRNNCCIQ
T4 sequence (P29351 whole entry, the tested form may be a part): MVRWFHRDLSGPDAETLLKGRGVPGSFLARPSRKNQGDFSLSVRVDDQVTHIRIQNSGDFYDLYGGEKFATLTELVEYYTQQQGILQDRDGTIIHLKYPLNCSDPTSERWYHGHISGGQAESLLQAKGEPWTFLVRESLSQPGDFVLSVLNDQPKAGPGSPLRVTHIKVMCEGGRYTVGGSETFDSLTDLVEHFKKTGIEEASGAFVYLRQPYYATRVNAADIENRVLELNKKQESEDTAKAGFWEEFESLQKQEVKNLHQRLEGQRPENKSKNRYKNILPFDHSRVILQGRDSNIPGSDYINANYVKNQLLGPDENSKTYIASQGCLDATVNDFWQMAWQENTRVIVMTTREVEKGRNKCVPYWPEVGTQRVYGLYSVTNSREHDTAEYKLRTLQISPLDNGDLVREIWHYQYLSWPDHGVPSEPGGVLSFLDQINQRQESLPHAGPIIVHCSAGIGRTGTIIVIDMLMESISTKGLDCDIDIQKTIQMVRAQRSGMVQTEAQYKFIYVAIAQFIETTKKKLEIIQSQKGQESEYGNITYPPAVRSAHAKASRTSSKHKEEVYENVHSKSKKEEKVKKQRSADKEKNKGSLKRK
T2 sequence (O75365 whole entry): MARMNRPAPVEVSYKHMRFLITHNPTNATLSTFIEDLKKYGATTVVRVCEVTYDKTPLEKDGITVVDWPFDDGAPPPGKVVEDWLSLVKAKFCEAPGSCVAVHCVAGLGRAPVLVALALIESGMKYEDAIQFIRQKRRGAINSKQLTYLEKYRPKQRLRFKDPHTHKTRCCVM

CC(=O)N1CCN(c2ccc(OCC3COC(Cn4ccnc4)(c4ccc(Cl)cc4Cl)O3)cc2)CC1 (centres unmarked) [ketoconazole]
inhibitory activity against GSTm8 [1]: no obvious inhibitory activity | retained PRL-1 PTPase activity [2]: 60-70% | remaining PRL-3 PTPase activity [3]: 25-40% | effectiveness against PRL-2 [4]: not effective | inhibitory activity against SHP-1 [5]: no obvious inhibitory activity | inhibition at 40 µg/mL ([6]; Homo sapiens, WM9, 144 h, read-out: growth inhibition of WM9 cells, single agent): 67% | effect on IFN-alpha activity in WM9 ([6]; ketoconazole 40 μg/ml): minor augmenting effect | activity against WM9 cells, single agent or with IFN-alpha ([6]; ketoconazole 0.625-20 μg/ml, 6 days): no apparent activity

N=C(N)c1ccc(OCCCCCOc2ccc(C(=N)N)cc2)cc1 [pentamidine]
inhibitory activity against GSTm8 [1]: no obvious inhibitory activity | retained PRL-1 PTPase activity [2]: 70-80% | remaining PRL-3 PTPase activity [3]: 20-30% | effectiveness against PRL-2 [4]: not effective | inhibition of MKP1 [7]: substantial inhibition | inhibitory activity against SHP-1 [5]: no obvious inhibitory activity | growth inhibition of WM9 cells, single agent ([6]; pentamidine 2.5-5 μg/ml, 6 days): 86-97% | effect on IFN-alpha-induced growth inhibition of WM9 ([6]; pentamidine, most obviously at 0.625-1.25 μg/ml): augmented IFN-alpha-induced growth inhibition

GM-CSF: recombinant human granulocyte/macrophage colony stimulating factor
effect on NB4 cell differentiation ([8]; GM-CSF alone): no detectable effect | augmentation of sodium stibogluconate-induced NB4 differentiation ([8]; GM-CSF with sodium stibogluconate): failed to augment | maximal increase of NBT-positive HL-60 cells [9]: 8-10% | maximal increase of NBT-positive U937 cells [10]: 8-10%

Source: US20030161893A1, “PTPase inhibitors and methods of using the same” (priority 2001, published 2003)
